Reference: US8563548B2, “Methylene furanone derivatives and use of said derivatives as a photoprotecting or antioxidant or depigmentation agent in cosmetic or dermatological compositions” (Pierre Fabre Dermo-Cosmetique, priority 2008, dated 2013)
Entries after “also recorded” stand apart in the source; their conditions may differ. One block for each compound: values may come before it.

How the values were obtained:
[1] = Antioxidant capacity by trapping the superoxide anion (photochemiluminescence with luminol); type: biochemical; details: sample needed for activity equivalent to 1 μg Trolox; for μg of sample for 1 μg of Trolox: reference products; for ACL μg of sample for 1 μg of Trolox: methylene furanone samples
Protocol: The antioxidant capacity of 10 molecules was measured by trapping the superoxide anion: 5d, 9a, 5b, 5a, 5e, 4d, 5f, 5g, 5h, 5j.
The method consists in generating free radicals by a photochemical signal. Oxidation intensity is 1000 times higher than that obtained in normal conditions.
Thus, the superoxide radical (O2—) is generated by a photochemical reaction: L+hv(UV)+O2→L*O2→L^++O2—
Detection is done by chemiluminescence. It enables the evaluation of water-soluble and fat-soluble antioxidant molecules or extracts.
Part of the superoxide anions are quenched by antioxidants. The remaining free radicals are quantified by chemiluminescence. L^++O2^−→N2+AP*^2−→AP^2−+hv (luminescence)
The results are expressed respectively in equivalent quantity of vitamin C or Trolox (6-hydroxy-2,5,7,8-tetramethylchroman-2-carboxylic acid). Sensitivity is on the order of a nanomole.
The analysis of the results depends on two criteria: shape of the curve and numerical value given by the software.

[2] = UV absorption characteristics (photoprotecting capacity); type: physicochemical; details: for region of UV absorption / maximum absorption: UVA, UVB, long UVA (340-400 nm); for UVA/UVB ratio (R) / critical wavelength (λc): UV absorption spectrum
From the text: The methylene furanone derivatives of general formula (I) of the present invention were thus evaluated in order to determine their photoprotecting capacity by determination of their UV absorption characteristics: molar extinction coefficient ε, critical wavelength (λc) and UVA/UVB ratio.
By gathering all this information and by comparing the shape of the UV absorption spectra, these molecules can be classified in three categories: […]

[3] = Photostability under Suntest irradiation (10 MED); type: physicochemical; details: irradiated with 10 MED, UV spectra before and after irradiation; for Photostability in solution: in solution in ethanol; for Photostability powder: powder form
From the text: For this study it was decided to irradiate samples, in powder form or in solution in ethanol, with 10 MED (minimal erythema dose: minimum amount of solar radiation causing the appearance of sunburn). The evaluation of degradation is estimated by the shape of the UV absorption spectra before and after irradiation.
Evaluation of Stability of Methylene Furanone Derivatives Irradiated in Suntest.

Tyrosinase = Tyrosinase monophenol monooxygenase (MPMO) inhibition test; type: biochemical; set-up: concentration or dose not given beside the values; details: for a 50 quantity; substrate L-tyrosine, compared to maximum activity without inhibitor
Protocol: Tyrosinase is a limiting enzyme in melanogenesis. It belongs to the family of oxidoreductases. […] It is synthesised in melanocytes. It is activated during its migration towards keratinocytes via melanosomes. It transforms tyrosine into DOPA and then dopaquinone, which eventually leads to polymerization and pigment production.
The monophenol monooxygenase function is measured in this test. Tyrosinase activity (MPMO in the strict sense) is measured.
The substrate: L-tyrosine is transformed into L-DOPA. The enzymatic reaction is stopped at this stage. The DOPA produced is determined by an external calibration (0.005 mM to 0.1 mM). The final result is a percentage of inhibition compared to maximum activity without inhibitor or extract.

Compound: O=C(O)CCCC[C@@H]1CCSS1 (racemic) [Lipoic acid, reference compound]
μg of sample for 1 μg of Trolox [1]: NEGATIVE

region of UV absorption / maximum absorption [2]: absorb in long UVA wavelengths
Compound: O=C1C=C(c2ccccc2)/C(=C/c2ccccc2)O1 [4a, (Z)-4-Phenyl-5-(phenylmethylene)furan-2(5H)-one]

UVA/UVB ratio (R) [2]: 1.9
region of UV absorption / maximum absorption [2]: maximum is in UVB
Compound: O=C1C=C(c2ccsc2)/C(=C/c2ccsc2)O1 [4b, (Z)-4-(3-Thiophene)-5-(3-thiophenylmethylene)furan-2(5H)one]

molar extinction coefficient ε ([2]; UV absorption): 22,000 l.mol^−1.cm^−1
UVA/UVB ratio (R) [2]: 3.2
region of UV absorption / maximum absorption [2]: maximum is in UVB
Compound: O=C1C=C(c2ccc3ccccc3c2)/C(=C/c2ccc3ccccc3c2)O1 [4c, (Z)-4-(2-naphthalene)-5-(2-naphthalenephenylmethylene)furan-2(5H)-one]

Photostability in solution [3]: moderately stable
Photostability powder [3]: stable
Compound: COc1ccc(/C=C2\OC(=O)C=C2c2ccc(OC)c(OC)c2)cc1OC [4d]
ACL μg of sample for 1 μg of Trolox [1]: 50.2 µg

region of UV absorption / maximum absorption [2]: absorb in long UVA wavelengths
Compound: O=C1C=C(c2ccccc2F)/C(=C/c2ccccc2F)O1 [4f, (Z)-4-(2-Fluorophenyl)-(Z)-5-(2-fluorophenylmethylene)furan-2(5H)-one]

Photostability in solution [3]: stable
Photostability powder [3]: stable
critical wavelength (λc) [2]: 367 nm
Compound: O=C1C=CC(=C(c2ccccc2)c2ccccc2)O1 [5a, 5-(Diphenylmethylene)furan-2(5H)-one]
ACL μg of sample for 1 μg of Trolox [1]: 43.0 µg

Photostability in solution [3]: stable
Photostability powder [3]: stable
Compound: O=C1C=CC(=C(c2ccsc2)c2ccsc2)O1 [5b, 5-(Dithiophene-3-ylmethylene)furan-2-(5H)-one]
ACL μg of sample for 1 μg of Trolox [1]: 28.0 µg

region of UV absorption / maximum absorption [2]: absorb in long UVA wavelengths
Compound: O=C1C=CC(=C(c2ccc3ccccc3c2)c2ccc3ccccc3c2)O1 [5c, 5-(Dinaphthalene-2-ylmethylene)furan-2-(5H)-one]

Photostability in solution [3]: stable
Compound: COc1ccc(C(=C2C=CC(=O)O2)c2ccc(OC)c(OC)c2)cc1OC [5d, 5-(bis(3,4-Dimethoxyphenyl)methylene)furan-2-(5H)-one]
Photostability powder [3]: completely unstable; also recorded: not stable
ACL μg of sample for 1 μg of Trolox [1]: 12.7 µg

Photostability in solution [3]: stable
Photostability powder [3]: stable
Compound: CC(C)(C)OC(=O)Nc1ccc(C(=C2C=CC(=O)O2)c2ccc(NC(=O)OC(C)(C)C)cc2)cc1 [5e]
ACL μg of sample for 1 μg of Trolox [1]: 46.3 µg

Photostability in solution [3]: stable
Photostability powder [3]: stable
Compound: O=C1C=CC(=C(c2ccccc2F)c2ccccc2F)O1 [5f, 5-bis((2-fluorophenyl)methylene)furan-2-(5H)-one]
ACL μg of sample for 1 μg of Trolox [1]: 88.3 µg

inhibition of MPMO enzyme activity (Tyrosinase): 65.93%
Compound: O=C1C=CC(=C(c2ccc(O)c(O)c2)c2ccc(O)c(O)c2)O1 [5g, 5-(bis(3,4-dihydroxyphenyl)methylene)furan-2-(5H)-one]
ACL μg of sample for 1 μg of Trolox [1]: 0.03 µg

Compound: COc1cc(C(=C2C=CC(=O)O2)c2cc(OC)c(OC)c(OC)c2)cc(OC)c1OC [5h, 5-(bis(3,4,5-trimethoxyphenyl)methylene)furan-2-(5H)-one]
ACL μg of sample for 1 μg of Trolox [1]: 30 µg

Compound: O=C1C=CC(=C(c2cc(O)c(O)c(O)c2)c2cc(O)c(O)c(O)c2)O1 [5i, 5-(bis(3,4,5-Trihydroxyphenyl)methylene)furan-2-(5H)-one]
ACL μg of sample for 1 μg of Trolox [1]: 1.5 µg

region of UV absorption / maximum absorption [2]: absorb in long UVA wavelengths
Compound: O=C1C=C(Br)/C(=C/c2ccccc2)O1 [6a, (Z)-4-Bromo-5-(phenylmethylene)furan-2-(5H)-one]

critical wavelength (λc) [2]: 355 nm
Compound: O=C1C=C(Br)/C(=C/c2ccsc2)O1 [6b, (Z)-4-Bromo-5-(thiophene-3-ylmethylene)furan-2-(5H)-one]

region of UV absorption / maximum absorption [2]: absorb in long UVA wavelengths
Compound: O=C1C=C(c2ccsc2)/C(=C/c2ccccc2)O1 [8a, (Z)-5-(Phenylmethylene)-4-(thiophene-3-yl)furan-2-(5H)-one]

region of UV absorption / maximum absorption [2]: absorb in long UVA wavelengths
Compound: O=C1C=C(c2ccccc2)/C(=C/c2ccsc2)O1 [8b, 4-Phenyl-(Z)-5-(thiophene-3-ylmethylene)furan-2-(5H)-one]

Photostability in solution [3]: stable
Photostability powder [3]: stable
Compound: O=C1C=C/C(=C(\c2ccccc2)c2ccsc2)O1 [9a, (Z)-5-(phenylthiophene-3-ylmethylene)furan-2-(5H)-one]
ACL μg of sample for 1 μg of Trolox [1]: 21.6 µg

Compound: COc1ccc(O)c(C(C)(C)C)c1 [Butylhydroxyanisole, reference compound]
μg of sample for 1 μg of Trolox [1]: 2.650 µg

Compound: N[C@@H](CS)C(=O)O [Cysteine, reference compound]
μg of sample for 1 μg of Trolox [1]: 698 µg

Compound: COC1=C(OC)C(=O)C(CCCCCCCCCCO)=C(C)C1=O [Idebenone, reference compound]
μg of sample for 1 μg of Trolox [1]: 10.10 µg

Compound: Cc1c(C)c2c(c(C)c1O)CCC(C)(C(=O)O)O2 (stereo not drawn) [Trolox, 6-hydroxy-2,5,7,8-tetramethylchroman-2-carboxylic acid, reference compound]
μg of sample for 1 μg of Trolox [1]: 1.067 µg

Compound: O=C1O[C@H]([C@@H](O)CO)C(O)=C1O [Vitamin C, ascorbic acid, reference compound]
μg of sample for 1 μg of Trolox [1]: 0.451 µg

Compound: CC(=O)Oc1c(C)c(C)c2c(c1C)CCC(C)(CCC[C@H](C)CCC[C@H](C)CCCC(C)C)O2 (stereo partly drawn) [α-tocopherol-acetate, reference compound]
μg of sample for 1 μg of Trolox [1]: 140 µg
